# Assay results from US8796302B2 (priority 2004, dated 2014).
# Legend:
# [1] = tested on: dopaminergic neurons in rat primary mesencephalic neuron-glia cultures; experiment: [3H]DA uptake in LPS-treated mesencephalic neuron-glia cultures; format: cell-based; details: LPS 5 ng/ml, 7 days, LPS alone 40.1 ± 3.2; for DA uptake, LPS + Peptide 10^−13: peptide 10^−13, 30 min pretreatment; for DA uptake, LPS + Peptide 10^−14: peptide 10^−14, 30 min pretreatment; for DA uptake, LPS + Peptide 10^−15: peptide 10^−15, 30 min pretreatment
# Description: Neuron-glia cultures were prepared from the ventral mesencephalic tissues of embryonic day 13-14 Fisher F344 rats or day 12-13 wild-type C57BL/6J (gp91phox^+/+) mice. Dissociated cells were seeded at 1×10^5/well and 5×10^5/well to poly-D-lysine-coated 96-well and 24-well plates, respectively. Cells were maintained at about 37° C. in a humidified atmosphere of 5% CO2 and 95% air, in minimal essential medium (MEM) containing 10% fetal bovine serum (FBS), 10% horse serum (HS), 1 gm/l glucose, 2 mM L-glutamine, 1 mM sodium pyruvate, 100 μM nonessential amino acids, 50 U/ml penicillin, and 50 μg/ml streptomycin. Seven-day-old cultures were used for treatment.
# Dextromethorphan (obtained from Sigma-Aldrich (St. Louis, Mo.) as dextromethorphan hydrobromide) was freshly prepared as a stock solution (1 mM) in ddH2O and sterile-filtered right before use. For treatment of the cultures, the DM was serially diluted (10×) with fresh culture medium containing 2% of fetal bovine and horse serum. The neuron-glia cultures were pretreated with 10^−5-10^−17M DM 30 minutes prior to treatment with 10 ng/ml of LPS.
# Seven days after treatment, the degeneration of dopaminergic neurons was assessed by [^3H]-dopamine (DA) uptake assays. The [^3H]-DA uptake assays were performed as follows. Cultures were washed twice with warm Krebs-Ringer buffer (KRB, 16 mM sodium phosphate, 119 mM NaCl, 4.7 mM KCl, 1.8 mM CaCl2, 1.2 mM MgSO4, 1.3 mM EDTA, and 5.6 mM glucose; pH7.4) and then incubated for about 20 minutes at about 37° C. with 1 μM [^3H]-DA in KRB in order to allow for the uptake of DA. Afterwards, the cultures were washed (three times) with ice-cold KRB and the cells were collected in 1 N NaOH. Radioactivity was determined by liquid scintillation counting.
# This example tests whether or not post-treatment with DM is still neuroprotective in LPS-induced neurotoxicity. Neuron-glia co-cultures as prepared in Example 1 were first treated with LPS (20 ng/ml) for twelve hours, and then LPS was removed by removing the media from the cultures and washing twice with PBS. Different concentrations of DM (10^−5, 10^−10, and 10^−14 M) were then added to the cultures and incubation was continued for another 6 or 7 days. The DA uptake and the superoxide production were measured as in Example 1 and 5.
# Neuron-glia cell cultures were prepared as in Example 1, and pretreated with the various peptide fragments of Table 1 (peptide fragments were obtained from BACHEM) for 30 minutes followed by addition of 5 ng/ml of LPS. DA neurotoxicity was measured as an Example 1 at 7 days post treatment.
# DA neurotoxicity was measured at 7 days post treatment as in Example 1. Dopaminergic neuronal death was determined at 7 days post treatment using immunocytochemical staining as in Example 2.
# Neuron-glia cultures were prepared from the ventral mesencephalic tissues of embryonic day 13-14 rats. Dissociated cells were seeded at 1×10^5/well and 5×10^5/well to poly-D-lysine-coated 96-well and 24-well plates, respectively.
# [2] = tested on: dopaminergic neurons in rat primary mesencephalic neuron-glia cultures; experiment: DA uptake / TH-IR count in neuron-glia cultures without toxin (spontaneous DA neuronal death, neurotrophic effect); format: cell-based; details: sodium butyrate, indicated concentrations, 7 days
# Description: In Example 23, [^3H]DA uptake assay and immunohistochemical analysis for TH-IR neurons were used to assess the viability of DA neurons in rat primary mesencephalic neuron-glia cultures in which approximately 1% of the neurons are dopaminergic. [^3H]DA uptake assays were performed as described in Example 1.
# Rat primary mesencephalic neuron-glia cultures were prepared from the ventral mesencephalic tissues of embryonic day 13-14 Fisher 344 rats. Dissociated cells were seeded at a density of 5×10^5/well to poly-D-lysine-precoated 24-well plates. Cells were maintained at 37° C. in a humidified atmosphere of 5% CO2 and 95% air, in minimal essential medium containing 10% fetal bovine serum (FBS), 10% horse serum, 1 gm/l glucose, 2 mM L-glutamine, 1 mM sodium pyruvate, 100 μM non-essential amino acids, 50 U/ml penicillin, and 50 μg/ml streptomycin. Unless otherwise indicated, seven-day-old cultures were used for treatment.
# Seven days after seeding, each well was treated with indicated concentration of VPA or its vehicle. Seven days after treatment, the viability of dopaminergic neurons was assessed by [^3H]DA uptake assays. Quantified results are expressed as mean±SEM of percentage of vehicle-treated cultures from three experiments performed in duplicate. *, p<0.05 compared with the corresponding vehicle-treated control cultures.
# Next, the rat primary mesencephalic neuron-glia cultures were treated with 0.6 mM VPA for various times to determine the treatment time-dependency. Rat primary mesencephalic neuron-glia cultures in a 24-well plate were treated with 0.6 mM VPA or its vehicle for indicated time 7 days after seeding. The viability of dopaminergic neurons was assessed by [^3H]DA uptake assays, shown in FIG. 37 or counting of TH-IR neurons, shown in FIG. 38. Quantified results are expressed as mean±SEM of percentage of vehicle-treated control cultures from three experiments performed in duplicate. *, p<0.05 compared with the corresponding vehicle-treated control cultures. […] VPA time-dependently induces survival-promoting effects against spontaneous DA neuronal death in rat primary mesencephalic neuron-glia cultures.
# Rat primary mesencephalic neuron-glia cultures seeded in a 24-well culture plate at density of 5×10^5 per well were treated with indicated concentrations of sodium butyrate or its vehicle 7 days after seeding. The viability of dopaminergic neurons was assessed by DA uptake assays 7 days after sodium butyrate addition.
# Mesencephalic neuron-glia cultures, prepared as described above, were pretreated with vehicle or 3-HM (1-5 μM) before the treatment of LPS (10 ng/ml). Seven days later, the degeneration of dopaminergic neurons was determined by the functional assay of [^3H]DA uptake and by the morphometric measurement of dopaminergic neurons following immunostaining with an anti-TH antibody. [^3H]DA and immunostaining are performed as described above.
# [3] = tested on: dopaminergic neurons in mesencephalic neuron-enriched cultures; experiment: [3H]DA uptake in neuron-enriched cultures (direct, conditioned media, reconstituted); format: cell-based, rat; details: neuron-enriched cultures, 7 days; drug 0.6 mM or conditioned medium
# Description: Mixed-glia cultures were first prepared from brains of 1-day-old Fisher 344 rat pups, as described previously (Liu, et al. 2001). Mechanically dissociated brain cells (5×10^7) were seeded onto 150 cm^2 culture flasks in Dulbecco's modified Eagle's medium containing 10% heat-inactivated FBS, 2 mM L-glutamine, 1 mM sodium pyruvate, 100 μM non-essential amino acids, 50 U/ml penicillin, and 50 μg/ml streptomycin. The cultures were maintained at 37° C. in a humidified atmosphere of 5% CO2 and 95% air, and medium was replenished 4 days after the initial seeding. Upon reaching confluence (usually 12-14 days later), microglia were detached from astroglia by shaking the flasks for 5 hours at 180 rpm. Astroglia were then detached with trypsin-EDTA and seeded in the same culture medium. After five or more consecutive passages, cells were seeded onto 24-well plates (10^5/well) for experiments. Immunocytochemical staining of the astroglia enriched cultures with either anti-GFAP or anti-OX-42 antibody indicated astroglial purity of greater than 98% and less than 2% of microglia contamination.
# Conditioned medium derived from rat primary astroglial cultures treated with vehicle (ACM) or 0.6 mM VPA (ACM-VPA) were harvested after 12, 24 and 48 hours of incubation. Midbrain neuron-enriched cultures seeded in 24-well plates at a density of 5×10^5 cells/well were treated with vehicle, VPA, ACM or ACM-VPA for 7 days. Neurotrophic effect was quantified by [^3H]DA uptake assay.
# Rat mesencephalic neuron-enriched cultures are prepared from dissociated ventral mesencephalic cells from embryonic day 13-14 Fisher 344 rats were seeded first at a density of 5×10^5/well to poly-D-lysine-precoated 24-well culture plates. […] Three days later, the culture medium was replaced with the maintenance medium. Routinely, the seven-day-old neuron-enriched cultures were used for treatment. […] Of the Neu-N immunoractive neurons, 2.7-3.9% was TH-IR neurons.
# To explore whether astroglial cells are also the main target of sodium butyrate-induced neurotrophic effect, we prepared media conditioned by incubation of astroglial cultures in the absence or presence 0.6 mM sodium butyrate. Conditioned medium derived from rat primary astroglial cultures treated with vehicle (ACM) or 0.6 mM sodium butyrate (ACM-Sodium butyrate) were harvested after 48 hours of incubation. Midbrain neuron-enriched cultures seeded in 24-well plates at a density of 5×10^5 cells/well were treated with vehicle, sodium butyrate, ACM or ACM-Sodium butyrate for 7 days. Seven days after treatment, neurotrophic effect for dopaminergic neurons was assessed by [^3H]DA uptake assays.
# Various concentrations of 3-HM (0.1-5 μM) or vehicle were added to the following different cell cultures: neuron-enriched cultures (A); reconstituted cultures by adding 10% and 20% (5×10^4/well and 1×10^5/well) of microglia to the neuron-enriched cultures (B); reconstituted cultures by adding 40% and 50% (2×10^5/well and 2.5×10^5/well) of astroglia to the neuron-enriched cultures (C). Cultures are prepared as described in Example 25. The [^3H]DA uptake measurements were performed […] after treatment. Results were expressed as a percentage of the vehicle-treated control cultures and were the mean±SE from five (A) and four (B,C) independent experiments in triplicate. *P<0.05 and **P, 0.001 compared with the vehicle-treated control cultures. #P<0.05 compared with the augmented cultures with 40% astroglia. N, neuron-enriched cultures; N+10% (20%) MG: 10% (20%) of microglia were added back to the neuron-enriched cultures; N+40% (50%) AS: 40% (50%) of astroglia were added back to the neuron-enriched cultures.
# To confirm the possible role of astroglia in the neurotrophic effect of 3-HM, conditioned media from astroglia-enriched cultures (prepared as described above) treated with either 3-HM (1-5 μM) or vehicle for 24 hours were prepared. […]
Compound,"DA uptake, LPS + Peptide 10^−13 [1]","DA uptake, LPS + Peptide 10^−14 [1]","DA uptake, LPS + Peptide 10^−15 [1]",neurotrophic effect (DA uptake) in neuron-glia culture [2],increase in DA uptake [3]
Tyr-Gly-Gly-Phe-Leu-Arg-Arg-Ile-Arg-Pro-Lys-Leu-Lys-Trp-Asp-Asn-Gln (YGGFLRRIRPKLKWDNQ; listed as Homo sapiens) [DynA 1-17],52.1 ± 6.2% of the control cultures,58.0 ± 6.5% of the control cultures,51.0 ± 9.4% of the control cultures,–,–
"DynA 2-17: peptide fragment of Dynorphin A (YGGFLRRIRPKLKWDNQ), residues 2-17",44.3 ± 8.2% of the control cultures,62.7 ± 8.0% of the control cultures,50.2 ± 6.9% of the control cultures,–,–
"CCCC(=O)[O-].[Na+] [sodium butyrate, Sodium Butyrate]",–,–,–,pronounced neurotrophic effect,less than 2 fold
